Experimental findings from PubChem BioAssay (NCI) are described below.

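Where inhibition never reached the appropriate level, the endpoint shown equals the highest concentration tested. Otherwise, values were interpolated linearly from a five-concentration, 48-hour dose response in 96-well plates. TGI is the concentration that stops growth completely.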

Test systems include HCT-15 colon; DU-145 prostate; RXF 393 renal; RPMI-8226 leukemia; NCI-H522 lung; SF-268 CNS; OVCAR-4 ovarian; SW-620 colon; SK-MEL-5 melanoma; MDA-MB-435; KM12 colon; SNB-75 CNS; ACHN renal; A498 renal; M14 melanoma; SR leukemia; COLO 205 colon; HT29 colon; EKVX NSCLC; MCF7 breast.
What all share (test): NCI-60 cell line screen, 48 h

Regarding `CC(=O)OCCOc1cc2c([nH]c3ccccc32)c(C)c2cccc1-2`, the TGI in the test on HCT-15 colon is 10.3 µM; with DU-145 prostate it was 15.8 µM; with RXF 393 renal it was 4.4 µM; in the test on RPMI-8226 leukemia, above 26.4 µM; with NCI-H522 lung, 4.29 µM; in the test on SF-268 CNS it was 7.28 µM. For the same molecule, the TGI is 4 µM in the test on OVCAR-4 ovarian; above 24.9 µM in the test on SW-620 colon; 9.79 µM with SK-MEL-5 melanoma; 5.6 µM in the test on MDA-MB-435; 10.3 µM with KM12 colon; 3.51 µM in the test on SNB-75 CNS. The TGI was 3.35 µM in the test with ACHN renal; 26.5 µM with A498 renal; 6.76 µM in the test on M14 melanoma; above 33.3 µM with SR leukemia; 3.22 µM with COLO 205 colon; 21.6 µM with HT29 colon. Also, the TGI in the test with EKVX NSCLC amounted to 5.17 µM; in the test with MCF7 breast, 15.2 µM.

With `CN(CC(=O)O)c1ncc2c(n1)-c1ccccc1OC2`, the TGI in the test with HCT-15 colon, in the test with DU-145 prostate, in the test with RXF 393 renal, with RPMI-8226 leukemia, in the test with NCI-H522 lung and in the test with SF-268 CNS was above 100 µM each time. Moreover, the TGI in the test on OVCAR-4 ovarian, in the test on SW-620 colon, in the test on SK-MEL-5 melanoma, in the test with MDA-MB-435, in the test with KM12 colon and in the test on SNB-75 CNS was above 100 µM in each case. Further, the TGI with ACHN renal, in the test on A498 renal, with M14 melanoma, in the test with SR leukemia, with COLO 205 colon and in the test on HT29 colon was above 100 µM in each case. In addition, the TGI in the test on EKVX NSCLC and in the test with MCF7 breast was above 100 µM each time.

Consider `COC(=O)/C=C(\S/C(=N\n1cc(C(=O)OC)c(C(=O)OC)c1-c1ccc(C)cc1)c1ccc(C)cc1)C(=O)OC`, for which the TGI came to 7.34 µM in the test with HCT-15 colon; 31.4 µM in the test with DU-145 prostate; 13.9 µM with RXF 393 renal; 20.1 µM with RPMI-8226 leukemia; 3.7 µM in the test with NCI-H522 lung; 40.4 µM with SF-268 CNS. Further, the TGI was determined as 3.37 µM in the test with OVCAR-4 ovarian; 5.53 µM in the test on SW-620 colon; 27.1 µM with SK-MEL-5 melanoma; 13.5 µM with MDA-MB-435; 41.9 µM in the test with KM12 colon; 31.4 µM with SNB-75 CNS. For the same molecule, the TGI with ACHN renal came out at 5.78 µM; with A498 renal, 30 µM; in the test on M14 melanoma, 11 µM; in the test with SR leukemia, 67.3 µM; in the test with COLO 205 colon it was 6.61 µM; in the test with HT29 colon, 9.67 µM. The TGI in the test with EKVX NSCLC worked out at 32.8 µM; in the test on MCF7 breast it was 23.7 µM.

With `Cc1nc2ccccc2c(=O)n1NC(=S)Nc1ccc(Cl)cc1[N+](=O)[O-]`, the TGI in the test on HCT-15 colon, with DU-145 prostate, with RXF 393 renal, in the test with RPMI-8226 leukemia, in the test on NCI-H522 lung and in the test on SF-268 CNS was above 100 µM in each case. For the same molecule, the TGI with OVCAR-4 ovarian, in the test on SW-620 colon, with SK-MEL-5 melanoma, with MDA-MB-435, with KM12 colon and with SNB-75 CNS was above 100 µM throughout. Further, the TGI in the test on ACHN renal, with A498 renal, with M14 melanoma, in the test on SR leukemia, with COLO 205 colon and in the test on HT29 colon was above 100 µM throughout. In addition, the TGI in the test with EKVX NSCLC and in the test with MCF7 breast was above 100 µM each time.

In the case of `CN(C)/C=N/NC(=O)/C(C#N)=C/N(C)C`, the TGI with HCT-15 colon, in the test on DU-145 prostate, in the test on RXF 393 renal, in the test with RPMI-8226 leukemia, in the test with NCI-H522 lung and in the test with SF-268 CNS was above 100 µM each time. Also, the TGI with OVCAR-4 ovarian, in the test with SW-620 colon, with SK-MEL-5 melanoma, in the test on MDA-MB-435, in the test with KM12 colon and in the test on SNB-75 CNS was above 100 µM throughout. Also, the TGI with ACHN renal, with A498 renal, with M14 melanoma, in the test with SR leukemia, in the test on COLO 205 colon and with HT29 colon was above 100 µM throughout. For the same molecule, the TGI with EKVX NSCLC and in the test on MCF7 breast was above 100 µM each time.

As for `O=C(O)[C@@H]1NC[C@H]2C(Br)=NO[C@H]21`, the TGI with HCT-15 colon, in the test with DU-145 prostate, with RXF 393 renal, in the test with RPMI-8226 leukemia, in the test on NCI-H522 lung and in the test on SF-268 CNS was above 100 µM throughout. Also, the TGI in the test on OVCAR-4 ovarian, in the test with SW-620 colon, in the test on SK-MEL-5 melanoma, with MDA-MB-435, in the test on KM12 colon and in the test on SNB-75 CNS was above 100 µM each time. The TGI in the test with ACHN renal, in the test on A498 renal, with M14 melanoma, with SR leukemia, in the test with COLO 205 colon and with HT29 colon was above 100 µM each time. The TGI in the test with EKVX NSCLC and in the test with MCF7 breast was above 100 µM in each case.

`COC(=O)/C=C(/OC)[C@H](C)[C@H](/C=C/c1csc(-c2csc(C(C)C)n2)n1)OC`: the TGI in the test on HCT-15 colon was above 100 µM; in the test on DU-145 prostate it was above 100 µM; with RXF 393 renal, above 25 µM; with RPMI-8226 leukemia, 65.8 µM; in the test on NCI-H522 lung it was above 100 µM; in the test on SF-268 CNS, above 100 µM. Also, the TGI with OVCAR-4 ovarian was above 100 µM; in the test with SW-620 colon it was above 100 µM; with SK-MEL-5 melanoma it was 19.9 µM; in the test on MDA-MB-435 it was above 100 µM; with KM12 colon, above 100 µM; in the test with SNB-75 CNS, above 100 µM. Further, the TGI in the test on ACHN renal, in the test with A498 renal, in the test on M14 melanoma, in the test with SR leukemia, in the test on COLO 205 colon and in the test with HT29 colon was above 100 µM each time. Also, the TGI with EKVX NSCLC and in the test with MCF7 breast was above 100 µM each time.
